# Data taken from patent US11000033B2, “Ketone or oxime compound, and herbicide” (NISSAN CHEMICAL CORPORATION, priority 2014, dated 2021).
# Assays:
# Assay type in all cases: in vivo
# [1] = tested on: soybean; experiment: Test Example 5: effect on crop by foliage application, plastic box (symbol d); conditions: 320 g/ha, 3 weeks after application
# How it was run: (§1)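 Diluvial soil, sterilized and boxed (21 × 13 × 7 cm), received spot-sown seed covered by about 1.5 cm soil; plants were then greenhouse-grown at 25–30° C.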
# [2] = tested on: Amaranthus retroflexus; experiment: Test Example 5: herbicidal effect by foliage application, plastic box (symbol N); conditions: 320 g/ha, 3 weeks after application
# How it was run: (§2)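 After sowing into sterilized diluvial soil and growing two weeks under glass at 25° C. to 30° C., seedlings receive a uniform foliar spray of diluted emulsion. Damage is judged visually three weeks on.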
# [3] = tested on: Apera spica-venti; experiment: Test Example 5: herbicidal effect by foliage application, plastic box (symbol L); conditions: 320 g/ha, 3 weeks after application
# How it was run: as §2
# [4] = tested on: Lolium multiflorum Lam.; experiment: Test Example 5: herbicidal effect by foliage application, plastic box (symbol K); conditions: 320 g/ha, 3 weeks after application
# How it was run: as §2
# [5] = tested on: corn; experiment: Test Example 5: effect on crop by foliage application, plastic box (symbol c); conditions: 320 g/ha, 3 weeks after application
# How it was run: as §1
# [6] = tested on: Veronica persica; experiment: Test Example 5: herbicidal effect by foliage application, plastic box (symbol R); conditions: 320 g/ha, 3 weeks after application
# How it was run: as §2
# [7] = tested on: corn; experiment: Test Example 4: effect on crop by soil treatment (symbol c); conditions: application herbicide amount 320 g/ha
# How it was run: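 Steps: fill box with sterilized diluvial soil; sow seed spot-like; cover with ~1.5 cm soil; grow in greenhouse (25° C. to 30° C.).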
# [8] = tested on: Alopecurus myosuroides; experiment: Test Example 5: herbicidal effect by foliage application, plastic box (symbol J); conditions: 320 g/ha, 3 weeks after application
# How it was run: as §2
# [9] = tested on: transplanted rice plant; experiment: Test Example 1: effect on crop, application before weed generation in submerged conditions (symbol a); conditions: application herbicide amount 320 g/ha
# How it was run: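 Alluvial soil pots flooded to 4 cm water, sown with Echinochloa oryzacola, Scirpus juncoides and Monochoria vaginalis, then transplanted with 2.5 leaf stage rice seedlings; pre-emergence application. Greenhouse 25° C. to 30° C.; scored 0–5 by herbicidal ratio 3 weeks after application.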
# [10] = tested on: Stellaria media; experiment: Test Example 4: herbicidal effect by soil treatment (symbol P); conditions: application herbicide amount 320 g/ha
# How it was run: (§3)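 Seeds were sown in sterilized diluvial soil, covered with about 1.5 cm of soil, and the soil surface was sprayed with a water-diluted emulsion of the compound at a predetermined rate. Plants grew in a greenhouse at 25° C. to 30° C.; effects were scored visually 3 weeks after application.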
# [11] = tested on: Alopecurus myosuroides; experiment: Test Example 4: herbicidal effect by soil treatment (symbol J); conditions: application herbicide amount 320 g/ha
# How it was run: as §3
# [12] = tested on: Echinochloa crus-galli var. crus-galli; experiment: Test Example 3: herbicidal effect by foliage application, Wagner pot (symbol H); conditions: application herbicide amount 320 g/ha
# How it was run: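 Rating at 3 weeks post-spray, by defined criteria. Treatment: emulsion diluted with water to a predetermined amount, applied evenly to foliage of 14-day-old plants raised in alluvial soil flooded 0.1–0.5 cm deep at 25–30 °C, rice co-sown.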
# [13] = tested on: Abutilon theophrasti; experiment: Test Example 4: herbicidal effect by soil treatment (symbol M); conditions: application herbicide amount 320 g/ha
# How it was run: as §3
# [14] = tested on: Echinochloa crus-galli var. crus-galli; experiment: Test Example 5: herbicidal effect by foliage application, plastic box (symbol H); conditions: 320 g/ha, 3 weeks after application
# How it was run: as §2
# [15] = tested on: Chenopodium album; experiment: Test Example 5: herbicidal effect by foliage application, plastic box (symbol O); conditions: 320 g/ha, 3 weeks after application
# How it was run: as §2
smiles,measurement,setting,value
CON=C(C)CC1CC(OC(=O)COc2ccccc2)=C(c2c(C)cc(-c3ccc(Cl)cc3)cc2C)C1=O (mixture of isomers) [6-061],"d: soybean, effect on crop (criteria of Test Example 1)",[1],3 (Herbicidal ratio of 40% or higher and lower than 70%)
same,"N: Amaranthus retroflexus, herbicidal effect (criteria of Test Example 1)",[2],1 (Herbicidal ratio of 5% or higher and lower than 20%)
same,"L: Apera spica-venti, herbicidal effect (criteria of Test Example 1)",[3],5 (Herbicidal ratio of 90% or more (almost completely withered))
same,"K: Lolium multiflorum Lam., herbicidal effect (criteria of Test Example 1)",[4],5 (Herbicidal ratio of 90% or more (almost completely withered))
same,"c: corn, effect on crop (criteria of Test Example 1)",[5],5 (Herbicidal ratio of 90% or more (almost completely withered))
same,"R: Veronica persica, herbicidal effect (criteria of Test Example 1)",[6],4 (Herbicidal ratio of 70% or higher and lower than 90%)
same,"c: corn, effect on crop grade",[7],0 (Herbicidal ratio of 5% or lower (almost no effect))
same,"J: Alopecurus myosuroides, herbicidal effect (criteria of Test Example 1)",[8],5 (Herbicidal ratio of 90% or more (almost completely withered))
same,"Effect grade on crop, a: transplanted rice plant",[9],5 (Herbicidal ratio of 90% or more (almost completely withered))
same,"P: Stellaria media, herbicidal effect grade",[10],3 (Herbicidal ratio of 40% or higher and lower than 70%)
same,"J: Alopecurus myosuroides, herbicidal effect grade",[11],5 (Herbicidal ratio of 90% or more (almost completely withered))
same,"herbicidal effect on H (Echinochloa crus-galli var. crus-galli), grade 0-5",[12],5 (Herbicidal ratio of 90% or more (almost completely withered))
same,"M: Abutilon theophrasti, herbicidal effect grade",[13],1 (Herbicidal ratio of 5% or higher and lower than 20%)
same,"H: Echinochloa crus-galli var. crus-galli, herbicidal effect (criteria of Test Example 1)",[14],5 (Herbicidal ratio of 90% or more (almost completely withered))
same,"O: Chenopodium album, herbicidal effect (criteria of Test Example 1)",[15],4 (Herbicidal ratio of 70% or higher and lower than 90%)
CON=C(C)CC1CC(O)=C(c2c(C)cc(C3CC3)cc2C)C1=O (stereo not drawn) [6-050],"d: soybean, effect on crop grade",[1],0 (Herbicidal ratio of 5% or lower (almost no effect))
same,"N: Amaranthus retroflexus, herbicidal effect grade",[2],0 (Herbicidal ratio of 5% or lower (almost no effect))
same,"L: Apera spica-venti, herbicidal effect grade",[3],4 (Herbicidal ratio of 70% or higher and lower than 90%)
same,"K: Lolium multiflorum Lam., herbicidal effect grade",[4],5 (Herbicidal ratio of 90% or more (almost completely withered))
same,"c: corn, effect on crop grade",[5],4 (Herbicidal ratio of 70% or higher and lower than 90%)
same,"R: Veronica persica, herbicidal effect grade",[6],2 (Herbicidal ratio of 20% or higher and lower than 40%)
same,"c: corn, effect on crop grade",[7],1 (Herbicidal ratio of 5% or higher and lower than 20%)
same,"J: Alopecurus myosuroides, herbicidal effect grade",[8],5 (Herbicidal ratio of 90% or more (almost completely withered))
same,"Effect grade on crop, a: transplanted rice plant",[9],4 (Herbicidal ratio of 70% or higher and lower than 90%)
same,"P: Stellaria media, herbicidal effect grade",[10],3 (Herbicidal ratio of 40% or higher and lower than 70%)
same,"J: Alopecurus myosuroides, herbicidal effect grade",[11],4 (Herbicidal ratio of 70% or higher and lower than 90%)
same,"herbicidal effect on H (Echinochloa crus-galli var. crus-galli), grade 0-5",[12],5 (Herbicidal ratio of 90% or more (almost completely withered))
same,"M: Abutilon theophrasti, herbicidal effect grade",[13],0 (Herbicidal ratio of 5% or lower (almost no effect))
same,"H: Echinochloa crus-galli var. crus-galli, herbicidal effect grade",[14],4 (Herbicidal ratio of 70% or higher and lower than 90%)
same,"O: Chenopodium album, herbicidal effect grade",[15],3 (Herbicidal ratio of 40% or higher and lower than 70%)
